pKi: −log10 of the molar value.

Among the data in paper PMC6010121, “Structural re-positioning, in silico molecular modelling, oxidative degradation, and biological screening of linagliptin as adenosine 3 receptor (ADORA3) modulators targeting hepatocellular carcinoma” (Journal of Enzyme Inhibition and Medicinal Chemistry, 2018) are Ki values, retold here.

For the test, the target named is T1, adenosine 3 receptor (ADORA3) (Homo sapiens, UniProt P0DMS8).
T1 construct: recombinant human ADORA3 (Abcam)
T1 sequence (P0DMS8 1-318): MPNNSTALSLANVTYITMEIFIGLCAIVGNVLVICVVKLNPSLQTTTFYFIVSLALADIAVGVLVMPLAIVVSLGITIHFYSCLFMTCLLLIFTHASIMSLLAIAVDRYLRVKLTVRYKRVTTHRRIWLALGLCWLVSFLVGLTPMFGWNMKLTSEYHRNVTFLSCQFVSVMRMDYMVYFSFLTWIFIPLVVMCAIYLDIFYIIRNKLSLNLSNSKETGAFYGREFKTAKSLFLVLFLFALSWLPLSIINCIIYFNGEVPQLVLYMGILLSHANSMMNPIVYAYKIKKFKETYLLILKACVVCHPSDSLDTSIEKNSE
Description: ELISA-based binding inhibition with recombinant human ADORA3 on anti-ADORA3 antibody-coated wells; Ki calculated from IC50 ([…]).

Regarding `CC#CCn1c(N2CCC[C@@H](N)C2)nc2c1c(=O)n(Cc1nc(C)c3ccccc3n1)c(=O)n2C` [LIN, linagliptin], the pKi was 7.42.

A word on the pKi: it is −log10 of the Ki, conventionally taken in molar units.
